# In patent publication US20080242688A1, “Method 741” (ASTRAZENECA AB, priority 2007, published 2008):
# Read-outs that look alike come from different tables or passages of the source.
# Columns and labels:
# [1] = Cardiovascular effects in telemetered rats; type: in vivo, rat; conditions: plasma, rat
# Experimental: (§1) Effects of single oral doses of AZD0328 on mean, systolic and diastolic arterial blood pressures, heart rate, body temperature, locomotor activity and respiratory parameters were evaluated in rats by combining whole body plethysmography with telemetry (Table 3). […] The degree of hypertension, however, was similar at the 3 highest doses, which partly can be explained by the high individual variation in plasma exposure at each dose level. The effect on heart rate was, on the other hand, dose-related.
# rats = assay: Cardiovascular effects in telemetered rats; type: in vivo, rat
# Experimental: as §1
# [2] = CNS side effects in rhesus monkeys; conditions: rhesus monkey, in vivo, po, read-out: NOAEL for decreased spatial working memory performance and CNS side effects (oral movements)
# Experimental: CNS side effects and decreased spatial working memory performance only occurred together in monkeys administered high dose AZD0328. The NOAEL for decreased spatial working memory performance and oral movements in rhesus monkeys was determined to be 0.016 mg/kg. Doses projected to produce therapeutic benefits in human subjects are those doses that were effective in functional assays across three species and were below the NOAEL for adverse effects on cognitive function and general behaviour in rhesus monkeys (<0.016 mg/kg). Doses projected to produce therapeutic benefits in human subjects therefore fall in the range 0.0001-0.01 mg/kg.
# 5-HT3A = molecular target: T1, 5-HT3A (Homo sapiens, UniProt P46098); assay: Functional assays at recombinant human receptors; type: biochemical; conditions: functional potency, recombinant human receptors in vitro
# T1 construct: expressed in transfected cells
# T1 sequence (P46098 24-478): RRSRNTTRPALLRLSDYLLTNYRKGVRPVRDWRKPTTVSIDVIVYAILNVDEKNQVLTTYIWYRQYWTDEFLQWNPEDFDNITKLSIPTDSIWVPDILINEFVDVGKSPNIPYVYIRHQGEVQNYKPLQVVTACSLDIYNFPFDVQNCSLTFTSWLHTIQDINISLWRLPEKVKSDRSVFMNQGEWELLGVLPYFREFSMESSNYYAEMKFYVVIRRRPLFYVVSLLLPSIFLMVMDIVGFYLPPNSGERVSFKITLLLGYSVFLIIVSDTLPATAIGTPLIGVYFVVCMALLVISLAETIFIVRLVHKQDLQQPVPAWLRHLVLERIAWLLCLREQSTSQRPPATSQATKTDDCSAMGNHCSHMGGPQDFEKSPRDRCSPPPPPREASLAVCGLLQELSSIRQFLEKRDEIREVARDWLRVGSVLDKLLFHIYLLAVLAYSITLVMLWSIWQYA
# dog Purkinje fibre = assay: Dog isolated cardiac Purkinje fibres, action potential; conditions: 0.5 and 1 Hz
# Experimental: Effects of AZD0328 on cardiac action potentials were assessed in 4 dog Purkinje fibre preparations. (Table 3). The following action potential parameters were measured at the stimulation frequencies 0.5 and 1 Hz: action potential duration at 50% (APD50), 70% (APD70) and 90% (APD90) of repolarisation; the maximum velocity of the action potential upstroke (Vmax); the action potential amplitude (APA) and the resting membrane potential (RMP). At both stimulation frequencies, AZD0328 caused a concentration-dependent prolongation of APD50, APD70 and APD90, with significant effects at 5.6 μM and above. There was also an indication of proarrhythmic potential of the compound.
# α7 receptor = α7 receptor (Rattus norvegicus, UniProt Q05941); assay: FFX hippocampal slice fEPSP, LTP; type: cell-based; conditions: 10 μM
# Chain of α7 receptor (Q05941 23-502): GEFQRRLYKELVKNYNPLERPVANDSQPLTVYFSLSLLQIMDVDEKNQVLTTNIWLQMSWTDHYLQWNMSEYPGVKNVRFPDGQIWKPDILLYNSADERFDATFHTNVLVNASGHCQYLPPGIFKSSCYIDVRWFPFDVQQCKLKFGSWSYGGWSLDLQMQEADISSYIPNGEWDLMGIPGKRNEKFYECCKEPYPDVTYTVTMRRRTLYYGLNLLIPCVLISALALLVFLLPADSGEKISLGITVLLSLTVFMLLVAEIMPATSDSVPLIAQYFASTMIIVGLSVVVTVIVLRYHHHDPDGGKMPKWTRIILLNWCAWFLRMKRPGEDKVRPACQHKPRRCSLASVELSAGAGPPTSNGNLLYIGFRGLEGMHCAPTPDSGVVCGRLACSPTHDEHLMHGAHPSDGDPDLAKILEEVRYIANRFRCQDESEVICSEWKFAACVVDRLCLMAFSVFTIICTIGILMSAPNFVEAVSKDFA
# Excerpt: In membranes prepared either from cultured, human recombinant α7 receptor-expressing, human embryonic kidney cells α7-HEK) or from rat brain hippocampus, AZD0328 competed with binding of an iodinated form of the high-affinity, selective α7 receptor antagonist snake toxin, [^125I]-α-bungarotoxin (BTX) (Table 1). In Xenopus oocytes injected with human, recombinant α7 receptor mRNA, AZD0328 activates whole cell currents (Table 2). […] In acutely dissociated rat hippocampal interneurons, AZD0328 elicits rapidly activated, desensitizing whole-cell current (Table 1), consistent with the known properties of rat neuronal α7 receptors. […] AZD0328 modulates synaptic function, consistent with the well-known role of α7 receptors as heteroreceptor modulators of glutamatergic and GABAergic synaptic function.
# Pgp transporter = molecular target: T2, Pgp transporter (Homo sapiens, UniProt P08183); assay: Digoxin transport, cell-based assay; type: in vitro ADME
# T2 construct: host or cells: unnamed cells
# T2 sequence (P08183 whole entry): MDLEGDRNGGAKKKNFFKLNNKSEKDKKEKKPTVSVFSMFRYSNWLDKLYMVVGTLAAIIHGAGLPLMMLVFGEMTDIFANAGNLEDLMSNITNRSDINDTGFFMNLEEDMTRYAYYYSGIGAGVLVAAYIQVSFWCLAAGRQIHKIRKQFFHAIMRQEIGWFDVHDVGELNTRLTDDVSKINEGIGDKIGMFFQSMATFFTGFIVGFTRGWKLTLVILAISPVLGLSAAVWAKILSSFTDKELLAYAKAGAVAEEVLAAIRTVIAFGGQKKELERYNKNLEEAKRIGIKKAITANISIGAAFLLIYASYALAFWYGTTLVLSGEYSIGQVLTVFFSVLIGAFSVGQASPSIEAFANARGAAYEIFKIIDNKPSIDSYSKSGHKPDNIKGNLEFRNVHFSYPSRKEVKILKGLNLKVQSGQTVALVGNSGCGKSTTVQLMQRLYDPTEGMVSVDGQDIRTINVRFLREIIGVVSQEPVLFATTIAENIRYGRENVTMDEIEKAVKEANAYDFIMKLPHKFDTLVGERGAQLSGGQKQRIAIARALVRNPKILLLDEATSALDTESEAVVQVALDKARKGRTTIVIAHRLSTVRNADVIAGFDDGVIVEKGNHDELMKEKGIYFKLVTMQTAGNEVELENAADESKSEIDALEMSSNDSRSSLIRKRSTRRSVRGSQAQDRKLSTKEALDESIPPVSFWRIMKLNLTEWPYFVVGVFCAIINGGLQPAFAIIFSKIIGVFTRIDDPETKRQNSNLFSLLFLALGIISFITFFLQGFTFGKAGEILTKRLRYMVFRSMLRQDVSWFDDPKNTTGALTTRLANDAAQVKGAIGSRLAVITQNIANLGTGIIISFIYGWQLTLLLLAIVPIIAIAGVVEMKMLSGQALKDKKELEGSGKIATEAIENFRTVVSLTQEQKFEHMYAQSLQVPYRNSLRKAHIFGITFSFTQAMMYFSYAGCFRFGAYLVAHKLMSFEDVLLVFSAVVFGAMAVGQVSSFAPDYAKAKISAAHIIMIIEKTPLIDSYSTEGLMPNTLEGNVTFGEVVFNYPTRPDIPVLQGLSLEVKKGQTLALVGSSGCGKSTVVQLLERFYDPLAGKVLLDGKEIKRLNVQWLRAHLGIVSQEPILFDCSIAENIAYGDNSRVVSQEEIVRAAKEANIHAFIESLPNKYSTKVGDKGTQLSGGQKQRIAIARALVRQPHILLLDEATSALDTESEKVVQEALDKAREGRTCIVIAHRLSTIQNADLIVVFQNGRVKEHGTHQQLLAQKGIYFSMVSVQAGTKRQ
# Excerpt: The 50% bioavailability of AZD0328 in human was conservatively selected based on the observations from rat, dog and monkey.
# [3] = Pentylenetetrazole-induced seizure threshold; conditions: in vivo; rat, oral; read-out: NOAEL, proconvulsant activity
# Experimental: AZD0328 was assessed for its ability to influence the threshold to clonic convulsions caused by an intravenous infusion of pentylenetetrazole (PTZ) in rats (Table 3).
# [4] = molecular target: human recombinant α7 receptor (Homo sapiens, UniProt P36544); assay: Whole cell current activation kinetics, α7-HEK cells; type: cell-based; design: expressed in transfected cells; host or cells: Xenopus oocytes (mRNA injected)
# Chain of human recombinant α7 receptor (P36544 23-502): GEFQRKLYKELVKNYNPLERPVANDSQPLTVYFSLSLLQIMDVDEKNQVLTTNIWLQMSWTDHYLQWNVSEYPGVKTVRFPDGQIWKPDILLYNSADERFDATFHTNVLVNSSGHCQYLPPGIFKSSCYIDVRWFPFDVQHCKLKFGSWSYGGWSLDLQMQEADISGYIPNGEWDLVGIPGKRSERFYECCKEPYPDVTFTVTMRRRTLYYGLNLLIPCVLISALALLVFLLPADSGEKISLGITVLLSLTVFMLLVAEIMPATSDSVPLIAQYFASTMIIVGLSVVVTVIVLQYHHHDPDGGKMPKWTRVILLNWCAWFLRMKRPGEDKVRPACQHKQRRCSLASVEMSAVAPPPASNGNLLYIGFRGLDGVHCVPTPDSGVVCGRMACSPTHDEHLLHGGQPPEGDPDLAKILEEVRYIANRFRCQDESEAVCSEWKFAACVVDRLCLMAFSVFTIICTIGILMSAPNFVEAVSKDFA
# ferrets = assay: Emetic potential in ferrets; type: in vivo; conditions: ferret
# Experimental: The emetic potential of AZD0328 was investigated in ferrets (n=6-8/dose) following a single oral dose of vehicle or AZD0328 (Table 3). Videotape recordings were used for observation of the animals up to 4 h after dose for quantitation and timing of emetic behaviours, characterised as retches (abdominal contractions), vomits and wet-dog shakes.
smiles,measurement,setting,value
"c1cnc2c(c1)C[C@@]1(CN3CCC1CC3)O2 [AZD0328, (R)-Spiro[1-azabicyclo[2.2.2]octane-3,2′(3′H)-furo[2,3-b]pyridine]]",Cmax,"[1]; po, highest dose, read-out: total Cmax",31.2 µM
same,Cmax,"[1]; oral, 1.1 mg/kg, read-out: NOAEL (effect<10%) on cardiovascular function, total Cmax",0.5 µM
same,increase in HR,"rats; rat, highest dose (total Cmax 31.2 μM)",19%
same,dose without CV effect,"rats; rat, oral gavage",1.1 mg/kg
same,duration of BP and HR increase postdose,rats; telemetered rats,increased for up to 6 h postdose.
same,NOAEL,[2],0.016 mg/kg
same,functional selectivity 5-HT3A>α7,5-HT3A,14 fold
same,"concentration with significant prolongation of APD50, APD70 and APD90",dog Purkinje fibre,≥ 5.6 µM
same,fEPSP LTP,α7 receptor,153 % baseline
same,inhibition of Pgp mediated digoxin transport,Pgp transporter,did not significantly inhibit
same,decrease of digoxin transport,Pgp transporter; 10.8 μg/mL (50 μM),11%
same,NOAEL,[3],64.9 mg/kg
same,"10-90% rise time, whole cell current",[4],1.5 ms
same,dose with statistically significant difference from vehicle for retches,ferrets; oral,5.6 mg/kg
same,emetic responses,"ferrets; oral gavage 5.6, 16.9 or 56.2 mg/kg",emetic responses were present at all doses
